# Results published in US20120060243A1, “Herbicide-Resistant AHAS-Mutants and Methods of Use” (priority 2008, published 2012).
# Like-named read-outs stand apart in the source and are kept apart here.
# Tests used:
# Assay type in all cases: in vivo, Brassica napus
# [1] = tested on: AHASL1A-A122T, A122T (Ho); details: 18 Days After Treatment, line AHASL1A-A122T; for Mean Percent Crop Phytotoxicity (% Crop Injury): field, 2-4 leaf stage
# Source text: (§1) Hand-crossed hybrids were produced in the greenhouse between two IMI-tolerant spring Brassica napus parental lines: “BnCL131A1” (homozygous for the A genome IMI-tolerant mutation AHASL1A-A122(At)T-S653(At)N) and “PM1PM2” (homozygous for the A genome AHAS-inhibitor tolerant mutation AHASL1A-W574(At)L (PM2) plus the C genome AHAS-inhibitor tolerant mutation AHASL1C-S653(At)N(PM1)). The resulting heterozygous hand-crossed hybrid line, “PM1PM2/BnCL131A 1” (heterozygous for the stacked mutations: AHASL1A-A122(At)T-S653(At)N, AHASL1A-W574(At)L (PM2), AHASL1C-S653(At)N(PM1)) was field tested together with lines each containing only one AHAS-inhibitor tolerant mutation (homozygous or heterozygous) and several spring Brassica napus checks.
# (§2) The three repetition trial was conducted in Simcoe, N. Dak., and used a randomized split block design. The trial was designed to measure the percent phytotoxicity (% crop injury) of the different entries under 5 different imidazolinone herbicide treatment rates. Plants were sprayed at the 2-4 leaf stage at a volume of 100 liters/ha. The imidazolinone herbicide rates used were as follows (Imazamox=BEYOND™ 120 g/I LC (BAS 72001H); NIS=INDUCE™ 90 (90% non-ionic surfactant; Helena Chemical Co., Collierville, Tenn.):
# (§3) Crop Injury Ratings were determined in the field by assessing each plot in the trial for the level of phytotoxicity (percent crop injury) on a scale from 0-100% at 18 days after treatment. Mean values for each entry across the three replications along with their statistical significance (ANOVA) are presented in Table 6 (Ho=homozygous; He=heterozygous). Each value presented in Table 6 is the mean of three replications.
# (§4) The percent phytotoxicity (% crop injury) ratings were transposed into Herbicide Tolerance ratings by subtracting the percent crop injury rating (Table 6) for each line from 100% to obtain the percent herbicide tolerance (Table 7) (Ho=homozygous; He=heterozygous).
# [2] = tested on: PM2 (AHASL1A-PM2), W574L (Ho); details: 18 Days After Treatment, line PM2 (AHASL1A-PM2); for Mean Percent Crop Phytotoxicity (% Crop Injury): field, 2-4 leaf stage
# Source text: as §1, §2, §3, §4
# [3] = tested on: BnCL131A1 (He), A122T-S653N (He); details: 18 Days After Treatment, line BnCL131A1 (He); for Mean Percent Crop Phytotoxicity (% Crop Injury): field, 2-4 leaf stage
# Source text: as §1, §2, §3, §4
# [4] = tested on: PM1PM2/BnCL131A1, S653N (He), W574L (He)/A122T-S653N (He); details: for Mean Percent Crop Phytotoxicity (% Crop Injury): field, 2-4 leaf stage; for Expected Additive % Herbicide Tolerance: sum of BnCL131A1 (He) + PM2 (AHASL1A-PM2) + PM1 (AHASL1C-PM1)
# Source text: as §1, §2, §3, §4
# [5] = tested on: BnCL131A1 (Ho), A122T-S653N (Ho); details: 18 Days After Treatment, line BnCL131A1 (Ho); for Mean Percent Crop Phytotoxicity (% Crop Injury): field, 2-4 leaf stage
# Source text: as §1, §2, §3, §4
# [6] = tested on: AHASL1A-S653N, S653N (Ho); details: 18 Days After Treatment, line AHASL1A-S653N; for Mean Percent Crop Phytotoxicity (% Crop Injury): field, 2-4 leaf stage
# Source text: as §1, §2, §3, §4
# [7] = tested on: PM1/PM2 (commercial two gene check: AHAS I S653N & AHAS III W574L); experiment: Herbicide injury rating, Table 4; details: 3-4 leaf stage, 2 weeks post spray, line PM1/PM2
# Description: (§5) Herbicide Injury Rating for Brassica napus Plants Treated with Imazamox. Plants for lines BN02 (wild type), two lines of BnCL131A1 (AHAS III A122T S653N double mutant; BnCL131A1.0 and BnCL131A1.18), PM1/PM2 (commercial two gene check: AHAS I S653N & AHAS III W574L) were grown […] Merge. Herbicide injury was evaluated 2 weeks post spray on 12 plants per line. The results are presented as mean injury±one standard error of the mean in Table 4 below. The results cover one planting and spray for all lines and the values for ±two standard error of the mean are also provided.
# [8] = tested on: BnCL131A1.18 (AHAS III A122T S653N double mutant); experiment: Herbicide injury rating, Table 4; details: 3-4 leaf stage, 2 weeks post spray, line BnCL131A1.18
# Description: as §5
# [9] = mean over 0, 35, 70, 140, 210 g ai/ha (N 15)
compound,measurement,setting,value
COCc1cnc(C2=NC(C)(C(C)C)C(=O)N2)c(C(=O)O)c1 (stereo not shown) [imazamox],Mean Percent Crop Phytotoxicity (% Crop Injury),[1]; 35 g ai/ha + 0.25% (v/v) NIS,70%
same,Mean Percent Herbicide Tolerance (100% minus percent crop injury),[1]; 35 g ai/ha,30.0%
same,Mean Percent Crop Phytotoxicity (% Crop Injury),[1]; 70 g ai/ha + 0.25% (v/v) NIS,78.33%
same,Mean Percent Herbicide Tolerance (100% minus percent crop injury),[1]; 70 g ai/ha,21.7%
same,Mean Percent Crop Phytotoxicity (% Crop Injury),[1]; 210 g ai/ha + 0.25% (v/v) NIS,70%
same,Mean Percent Herbicide Tolerance (100% minus percent crop injury),[1]; 210 g ai/ha,30.0%
same,"Mean Percent Crop Phytotoxicity (% Crop Injury), Mean over rates",[1]; [9],57%
same,Mean Percent Crop Phytotoxicity (% Crop Injury),[2]; 35 g ai/ha + 0.25% (v/v) NIS,36.67%
same,Mean Percent Herbicide Tolerance (100% minus percent crop injury),[2]; 35 g ai/ha,63.3%
same,Mean Percent Crop Phytotoxicity (% Crop Injury),[2]; 70 g ai/ha + 0.25% (v/v) NIS,46.67%
same,Mean Percent Herbicide Tolerance (100% minus percent crop injury),[2]; 70 g ai/ha,53.3%
same,Mean Percent Crop Phytotoxicity (% Crop Injury),[2]; 140 g ai/ha + 0.25% (v/v) NIS,83.33%
same,Mean Percent Herbicide Tolerance (100% minus percent crop injury),[2]; 140 g ai/ha,16.7%
same,Mean Percent Crop Phytotoxicity (% Crop Injury),[2]; 210 g ai/ha + 0.25% (v/v) NIS,80%
same,Mean Percent Herbicide Tolerance (100% minus percent crop injury),[2]; 210 g ai/ha,20.0%
same,"Mean Percent Crop Phytotoxicity (% Crop Injury), Mean over rates",[2]; [9],49.33%
same,Mean Percent Crop Phytotoxicity (% Crop Injury),[3]; 35 g ai/ha + 0.25% (v/v) NIS,33.33%
same,Mean Percent Herbicide Tolerance (100% minus percent crop injury),[3]; 35 g ai/ha,66.7%
same,Mean Percent Crop Phytotoxicity (% Crop Injury),[3]; 70 g ai/ha + 0.25% (v/v) NIS,60%
same,Mean Percent Herbicide Tolerance (100% minus percent crop injury),[3]; 70 g ai/ha,40.0%
same,Mean Percent Crop Phytotoxicity (% Crop Injury),[3]; 140 g ai/ha + 0.25% (v/v) NIS,80%
same,Mean Percent Herbicide Tolerance (100% minus percent crop injury),[3]; 140 g ai/ha,20.0%
same,Mean Percent Crop Phytotoxicity (% Crop Injury),[3]; 210 g ai/ha + 0.25% (v/v) NIS,73.33%
same,Mean Percent Herbicide Tolerance (100% minus percent crop injury),[3]; 210 g ai/ha,26.7%
same,"Mean Percent Crop Phytotoxicity (% Crop Injury), Mean over rates",[3]; [9],49.33%
same,Mean Percent Crop Phytotoxicity (% Crop Injury),"[4]; 35 g ai/ha + 0.25% (v/v) NIS, 18 Days After Treatment, line PM1PM2/BnCL131A1",8.33%
same,Mean Percent Herbicide Tolerance (100% minus percent crop injury),"[4]; 35 g ai/ha, 18 Days After Treatment, line PM1PM2/BnCL131A1",91.7%
same,Mean Percent Crop Phytotoxicity (% Crop Injury),"[4]; 70 g ai/ha + 0.25% (v/v) NIS, 18 Days After Treatment, line PM1PM2/BnCL131A1",15%
same,Mean Percent Herbicide Tolerance (100% minus percent crop injury),"[4]; 70 g ai/ha, 18 Days After Treatment, line PM1PM2/BnCL131A1",85.0%
same,Mean Percent Crop Phytotoxicity (% Crop Injury),"[4]; 140 g ai/ha + 0.25% (v/v) NIS, 18 Days After Treatment, line PM1PM2/BnCL131A1",21.67%
same,Mean Percent Herbicide Tolerance (100% minus percent crop injury),"[4]; 140 g ai/ha, 18 Days After Treatment, line PM1PM2/BnCL131A1",78.3%
same,Expected Additive % Herbicide Tolerance,[4]; 140 g ai/ha,45%
same,Expected Additive % Herbicide Tolerance,"[4]; 140 g ai/ha, listed as Beyond",45.0%
same,Mean Percent Crop Phytotoxicity (% Crop Injury),"[4]; 210 g ai/ha + 0.25% (v/v) NIS, 18 Days After Treatment, line PM1PM2/BnCL131A1",15%
same,Mean Percent Herbicide Tolerance (100% minus percent crop injury),"[4]; 210 g ai/ha, 18 Days After Treatment, line PM1PM2/BnCL131A1",85%
same,Mean Percent Herbicide Tolerance (100% minus percent crop injury),"[4]; 210 g ai/ha, 18 Days After Treatment, line PM1PM2/BnCL131A1, listed as Beyond",85.0%
same,Expected Additive % Herbicide Tolerance,[4]; 210 g ai/ha,55%
same,Expected Additive % Herbicide Tolerance,"[4]; 210 g ai/ha, listed as Beyond",55.0%
same,"Mean Percent Crop Phytotoxicity (% Crop Injury), Mean over rates","[4]; mean over 0, 35, 70, 140, 210 g ai/ha (N 15), 18 Days After Treatment, line PM1PM2/BnCL131A1",12%
same,Mean Percent Crop Phytotoxicity (% Crop Injury),[5]; 35 g ai/ha + 0.25% (v/v) NIS,16.67%
same,Mean Percent Herbicide Tolerance (100% minus percent crop injury),[5]; 35 g ai/ha,83.3%
same,Mean Percent Crop Phytotoxicity (% Crop Injury),[5]; 70 g ai/ha + 0.25% (v/v) NIS,31.67%
same,Mean Percent Herbicide Tolerance (100% minus percent crop injury),[5]; 70 g ai/ha,68.3%
same,Mean Percent Crop Phytotoxicity (% Crop Injury),[5]; 140 g ai/ha + 0.25% (v/v) NIS,43.33%
same,Mean Percent Herbicide Tolerance (100% minus percent crop injury),[5]; 140 g ai/ha,56.7%
same,Mean Percent Crop Phytotoxicity (% Crop Injury),[5]; 210 g ai/ha + 0.25% (v/v) NIS,55%
same,Mean Percent Herbicide Tolerance (100% minus percent crop injury),[5]; 210 g ai/ha,45.0%
same,"Mean Percent Crop Phytotoxicity (% Crop Injury), Mean over rates",[5]; [9],29.33%
same,Mean Percent Crop Phytotoxicity (% Crop Injury),[6]; 70 g ai/ha + 0.25% (v/v) NIS,78.33%
same,Mean Percent Herbicide Tolerance (100% minus percent crop injury),[6]; 70 g ai/ha,21.7%
same,Mean Percent Crop Phytotoxicity (% Crop Injury),[6]; 210 g ai/ha + 0.25% (v/v) NIS,90%
same,Mean Percent Herbicide Tolerance (100% minus percent crop injury),[6]; 210 g ai/ha,10.0%
same,"Mean Percent Crop Phytotoxicity (% Crop Injury), Mean over rates",[6]; [9],64.33%
same,"Herbicide injury rating, mean injury ± standard error of the mean",[7]; 35 g ai/ha + 0.5% v/v Merge,0.50 ± 0.19
same,"Herbicide injury rating, mean injury ± standard error of the mean",[7]; 70 g ai/ha + 0.5% v/v Merge,1.83 ± 0.21
same,"Herbicide injury rating, mean injury ± standard error of the mean",[7]; 210 g ai/ha + 0.5% v/v Merge,2.00 ± 0.23
same,"Herbicide injury rating, mean injury ± standard error of the mean",[7]; 420 g ai/ha,3.83 ± 0.21
same,"Herbicide injury rating, mean injury ± standard error of the mean",[8]; 35 g ai/ha + 0.5% v/v Merge,0.64 ± 0.20
same,"Herbicide injury rating, mean injury ± standard error of the mean",[8]; 70 g ai/ha + 0.5% v/v Merge,0.91 ± 0.21
same,"Herbicide injury rating, mean injury ± standard error of the mean",[8]; 210 g ai/ha + 0.5% v/v Merge,1.89 ± 0.20
same,"Herbicide injury rating, mean injury ± standard error of the mean",[8]; 420 g ai/ha,2.27 ± 0.14
